Consider three compounds from ChEMBL document CHEMBL2069184, “A Back-to-Front Fragment-Based Drug Design Search Strategy Targeting the DFG-Out Pocket of Protein Tyrosine Kinases” (ACS Med Chem Lett, 2012).

Experiment [1] concerns the target T1, Vascular endothelial growth factor receptor 2 (Homo sapiens, UniProt P35968). The experiment is described as follows: Inhibition of human phosphorylated N-terminal-His6 tagged VEGFR2 catalytic domain using 5-FAM-EEPLYWSFPAKKK-CONH2 as substrate after 60 mins by mobility shift assay.
The target in experiment [2] is T1, Vascular endothelial growth factor receptor 2. The experiment is described as follows: Inhibition of human unphosphorylated N-terminal-His6 tagged VEGFR2 catalytic domain using 5-FAM-EEPLYWSFPAKKK-CONH2 as substrate after 60 mins by mobility shift assay.
Experiment [3] shares this target. As to conditions: 100 uM.

T1 sequence (P35968 whole entry, the tested form may be a part): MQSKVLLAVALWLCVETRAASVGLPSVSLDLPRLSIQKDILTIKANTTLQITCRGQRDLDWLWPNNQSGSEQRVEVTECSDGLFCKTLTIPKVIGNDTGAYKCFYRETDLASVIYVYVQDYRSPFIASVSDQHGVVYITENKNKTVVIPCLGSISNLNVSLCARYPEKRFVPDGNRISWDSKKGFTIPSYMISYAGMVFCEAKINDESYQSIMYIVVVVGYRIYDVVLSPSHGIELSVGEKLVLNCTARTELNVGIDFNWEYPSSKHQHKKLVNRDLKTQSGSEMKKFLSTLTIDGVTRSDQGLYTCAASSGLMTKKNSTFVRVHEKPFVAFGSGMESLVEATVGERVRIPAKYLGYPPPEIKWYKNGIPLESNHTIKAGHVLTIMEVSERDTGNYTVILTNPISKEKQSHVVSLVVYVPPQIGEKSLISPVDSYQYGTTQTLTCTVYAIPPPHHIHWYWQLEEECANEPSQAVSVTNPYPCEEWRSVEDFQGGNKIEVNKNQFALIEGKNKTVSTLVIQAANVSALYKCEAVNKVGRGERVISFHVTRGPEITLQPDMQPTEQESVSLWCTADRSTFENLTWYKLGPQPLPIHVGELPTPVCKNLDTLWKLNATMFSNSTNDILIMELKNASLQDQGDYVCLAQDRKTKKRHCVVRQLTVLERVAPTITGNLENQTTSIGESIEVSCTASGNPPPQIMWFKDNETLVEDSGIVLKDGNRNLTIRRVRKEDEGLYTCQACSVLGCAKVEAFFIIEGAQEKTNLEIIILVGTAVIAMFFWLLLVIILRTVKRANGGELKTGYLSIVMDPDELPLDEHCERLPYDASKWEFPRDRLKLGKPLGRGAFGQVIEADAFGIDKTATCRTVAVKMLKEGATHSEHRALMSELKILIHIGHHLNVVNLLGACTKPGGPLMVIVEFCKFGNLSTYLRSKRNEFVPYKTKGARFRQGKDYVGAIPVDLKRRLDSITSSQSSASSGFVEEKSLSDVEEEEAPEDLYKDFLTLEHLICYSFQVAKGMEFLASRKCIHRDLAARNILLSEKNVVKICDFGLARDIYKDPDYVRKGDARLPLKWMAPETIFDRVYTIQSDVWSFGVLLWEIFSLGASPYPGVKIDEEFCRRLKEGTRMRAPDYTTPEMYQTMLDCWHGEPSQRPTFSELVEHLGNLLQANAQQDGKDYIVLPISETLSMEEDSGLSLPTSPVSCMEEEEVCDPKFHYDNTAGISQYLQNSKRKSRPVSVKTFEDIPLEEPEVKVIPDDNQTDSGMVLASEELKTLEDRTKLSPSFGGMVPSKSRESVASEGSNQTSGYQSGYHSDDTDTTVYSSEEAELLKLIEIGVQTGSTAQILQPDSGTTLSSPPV

As usually defined, the IC50 is the concentration that gives 50% inhibition. Turning to `c1ccc2c3c([nH]c2c1)-c1n[nH]cc1CCC3`, the half-maximal inhibitory concentration (IC50) in experiment [1] worked out at 0.86 µM; in experiment [2], 0.62 µM.
In general, inhibition refers to how much of the control response was suppressed. Lower therefore signals little suppression. In general, Ki refers to a dissociation constant, usually derived from enzyme kinetics or from competition with a known ligand. On to `Cc1oc(-c2ccccc2)nc1COc1cccc(CO)c1`, for which the 50% inhibitory concentration (IC50) in experiment [1] is greater than 100 µM; in experiment [2], 50 µM. The inhibition in experiment [3] turned out to be 8%. Also, in experiment [2], the Ki turned out to be 25 µM.
`O=C(Nc1cccc(C(F)(F)F)c1)Nc1ccccc1Cl`: the half-inhibitory concentration (IC50) in experiment [1] is greater than 100 µM; in experiment [2] it was 4.4 µM.
